Results: the NIST ThermoML archive (doi:10.1021/je060271a)

Settings: 343.14 K, Liquid, Vibrating tube method

CCCCCCC(=O)OCC(COC(=O)CCCCCC)(COC(=O)CCCCCC)COC(=O)CCCCCC [pentaerythritol tetraheptanoate]
Settings | mass density [kg/m3]
14033 kPa | 950.8
14046 kPa | 950.8
14058 kPa | 950.9
14074 kPa | 950.7
14087 kPa | 950.9
14100 kPa | 950.9
14113 kPa | 950.8
14129 kPa | 950.8
14142 kPa | 950.8
14157 kPa | 951
14170 kPa | 951
14183 kPa | 951
14199 kPa | 951
14212 kPa | 950.9
14225 kPa | 950.9
14239 kPa | 951
14255 kPa | 951
14268 kPa | 950.9
14281 kPa | 951.1
14298 kPa | 951
14311 kPa | 951.1
14324 kPa | 951
14340 kPa | 950.9
14354 kPa | 951.1
14367 kPa | 951.1
14383 kPa | 951
16135 kPa | 952.3
16152 kPa | 952.4
16173 kPa | 952.3
16190 kPa | 952.3
16208 kPa | 952.3
16228 kPa | 952.4
16245 kPa | 952.4
16263 kPa | 952.3
16283 kPa | 952.4
16301 kPa | 952.4
16319 kPa | 952.4
16339 kPa | 952.5
16357 kPa | 952.5
16376 kPa | 952.4
16394 kPa | 952.5
16415 kPa | 952.5
16433 kPa | 952.5
16451 kPa | 952.7
16472 kPa | 952.5
16490 kPa | 952.5
16508 kPa | 952.6
16526 kPa | 952.6
16548 kPa | 952.6
16566 kPa | 952.5
16585 kPa | 952.6
16607 kPa | 952.7
16626 kPa | 952.7
16645 kPa | 952.7
16664 kPa | 952.6
16682 kPa | 952.6
16704 kPa | 952.7
16722 kPa | 952.8
16744 kPa | 952.8
16763 kPa | 952.7
16781 kPa | 952.7
16800 kPa | 952.7
16822 kPa | 952.8
16841 kPa | 952.8
16863 kPa | 952.8
16901 kPa | 952.8
16924 kPa | 952.8
16943 kPa | 952.9
16962 kPa | 953
16981 kPa | 952.9
17004 kPa | 952.9
17022 kPa | 953
17042 kPa | 953
17065 kPa | 953
17084 kPa | 953.1
17107 kPa | 952.9
17126 kPa | 952.9
17146 kPa | 953
17165 kPa | 953
17188 kPa | 953.1
17208 kPa | 953
17227 kPa | 953.1
17251 kPa | 953.1
17270 kPa | 953.2
17294 kPa | 953.2
17314 kPa | 953.2
17334 kPa | 953.1
17358 kPa | 953.1
17378 kPa | 953.1
17398 kPa | 953.2
17419 kPa | 953
17443 kPa | 953.1
17593 kPa | 953.4
17613 kPa | 953.2
17638 kPa | 953.3
17659 kPa | 953.4
17680 kPa | 953.3
17701 kPa | 953.4
17722 kPa | 953.4
17747 kPa | 953.4
17768 kPa | 953.5
17789 kPa | 953.5
17815 kPa | 953.5
17835 kPa | 953.5
17860 kPa | 953.4
17902 kPa | 953.5
17928 kPa | 953.4
18040 kPa | 953.6
18066 kPa | 953.6
18088 kPa | 953.5
18109 kPa | 953.6
18130 kPa | 953.7
